Patent US7265152B2 (ViroPharma Incorporated, priority 2002, dated 2007)
Read-outs that look alike come from different tables or passages of the source.

Tests used:
[1] = tested on: HCV replicon (BB7 sequence) in Huh-7-Clone A cells; test: HCV replicon assay: ELISA of NS5A protein in replicon-containing cells (Inhibition of Viral RNA Replication); assay type: cell-based
From the text: Antiviral activity of representative compounds of the invention was first evaluated in a human liver-derived cell line (Huh-7-Clone A) containing the HCV replicon (BB7 sequence) (See Lohmann et al. Science. 1999, 285:110-3; Blight K J et al., Science. 2000, 290:1972-4; Pietschmann, T. et al., J. Virol. 2001, 73:1252-1264; and Lohmann, V. et al., J. Virol. 2001, 75:1437-1449). The HCV replicon is a subgenomic viral RNA that expresses the HCV proteins required for its own replication. These proteins include non-structural proteins NS3, NS4A, NS4B, NS5A and NS5B. The replicon also contains a foreign gene encoding a drug-selectable marker (neomycin phosphotransferase) to allow for G418 (neomycin) selection of cells that contain the replicon.
An ELISA (enzyme-linked immunosorbant assay) was used to determine the effect of compounds within the scope of the invention on the amount of HCV NS5A protein produced after a 72-hour incubation of the replicon-containing cells in the presence of varying concentrations of compound. COSTAR® 96-well cell culture plates were used but other known cell culture plates may be used. After incubation, media is removed from wells and the cells are fixed to the assay plate using 0.05% glutaraldehyde. The glutaraldehyde is then washed off using phosphate-buffered saline (PBS) following a 1 hour incubation and cells are blocked for non-specific antibody binding using for example SUPERBLOCK® reagent (blocking buffer) in PBS. The blocking agent is rinsed from the cells with PBS after 1 hour at 37° C. and primary monoclonal antibody is added to each well containing compound. Primary antibody is incubated for 1 hour at 37° C. and rinsed 3 times with PBS containing 0.02% TWEEN-20™ before addition of Horseradish Peroxidase (HRP) conjugated secondary antibody. HRP is incubated for 1 hour at 37° C. and rinsed several times, first with PBS/TWEEN-20™ followed by PBS alone. To quantify peroxidase activity, 3,3′,5, 5′-tetramethylbenzidine (TMB) substrate is added to the plate and after 30 minutes, the plates are read in an ELISA plate reader at an OD of 650 nm. Compound dose response was measured in an 8-point dose curve diluted serially to determine the inhibitory concentration at 50% (EC50 value). […] Ranges of 50% effective concentrations (EC50s) for representative compounds within the scope of this invention are listed in Table 1. Preferred compounds have 50% effective concentrations at about 30 μM or less, more preferred compounds have 50% effective concentrations at about 5 μM or less, and most preferred compounds have 50% effective concentrations at about 0.5 μM or less.

[2] = target: T1, HCV NS5B (Hepatitis C virus genotype 1b, UniProt Q9WMX2); test: Inhibition of viral RNA-dependent RNA polymerase (RdRp), in vitro biochemical assay; design: species or system HCV genotype 1b virus (BB7); details: read-out: HCV pol-BB7 IC50
T1 construct: fusion protein, of which the carboxyl terminal 21 amino acids were removed to enhance its solubility; His tag (GSHHHHHH); made in house; host or cells: E. coli
From the text: The HCV NS5B-directed RdRp activity was established and characterized in a standard in vitro biochemical assay using a purified HCV NS5B protein derived from the consensus sequence of a patient infected with HCV genotype 1b virus (BB7). (See Blight K J et al., Science. 2000, 290:1972-4). The NS5B consensus sequence was cloned and expressed in E. coli as a histidine tagged (GSHHHHHH) fusion protein, of which the carboxyl terminal 21 amino acids were removed to enhance its solubility.
In addition to evaluating their activity in the replicon assay, representative compounds within the scope of the present invention, as shown in examples 1-453 of Table 1, were also evaluated for antiviral activity using this assay. A measure of the inhibitory activity of compounds of the invention may be expressed as IC50 values. IC50 values represent the concentration of the compound at which 50% of the RdRp activity is inhibited. […] These low concentrations of test compounds required to achieve 50% inhibition of the RdRp activity indicate that the compounds of the invention are effective at inhibiting RNA synthesis by viral RdRp enzymes.

[3] = ranges of EC50 in HCV replicon assay, read-out: Replicon
[4] = HCV replicon assay, ranges of EC50, read-out: Replicon
[5] = HCV NS5B RdRp, BB7, activity class
[6] = HCV replicon assay, ranges of 50% effective concentration (EC50), read-out: Replicon
[7] = HCV NS5B polymerase, BB7 (genotype 1b), values given as range classes A-D
[8] = HCV NS5B RdRp, BB7, class symbols A-D
[9] = purified His-tagged NS5B (BB7), carboxyl terminal 21 amino acids removed
[10] = Hepatitis C virus, Huh-7-Clone A, NS5A ELISA, 72-hour incubation, ranges of EC50, read-out: Replicon

Molecule	IC50 [2, 9] [nM]	EC50 [1, 10] [µM]	also measured
2-(2,4-Difluoro-phenyl)-5-isopropoxy-benzofuran-3-carboxylic acid methylamide [Example 91]			EC50 [1, 3]: < 30 µM; IC50 ([2]; HCV NS5B RdRp, BB7 genotype 1b): ≤ 500 nM
2-(4-Bromo-phenyl)-5-isopropoxy-benzofuran-3-carboxylic acid methylamide [Example 104]			EC50 [1, 3]: < 10 µM; IC50 ([2]; HCV NS5B RdRp, BB7 genotype 1b): ≤ 500 nM
2-(4-Fluoro-phenyl)-5-hydroxy-6-[methanesulfonyl-(2-oxo-propyl)-amino]-benzofuran-3-carboxylic acid methylamide [Example 354]			EC50 [1, 4]: < 10 µM; IC50 [2, 5]: 500 to 5000 nM
2-(4-Fluoro-phenyl)-5-hydroxy-6-morpholin-4-yl-benzofuran-3-carboxylic acid methylamide [Example 124]			EC50 [1, 3]: < 10 µM; IC50 ([2]; HCV NS5B RdRp, BB7 genotype 1b): 500 to 5000 nM
2-(4-Fluoro-phenyl)-5-isopropoxy-6-ureido-benzofuran-3-carboxylic acid methylamide [Example 135]			EC50 [1, 3]: < 10 µM; IC50 ([2]; HCV NS5B RdRp, BB7 genotype 1b): ≤ 500 nM
2-(4-Fluoro-phenyl)-5-methoxy-6-(2H-[1,2,4]triazol-3-yl)-benzofuran-3-carboxylic acid methylamide [Example 358]			EC50 [1, 4]: < 1 µM; IC50 [2, 5]: ≤ 500 nM
2-(4-Fluoro-phenyl)-5-methoxy-6-(5-methyl-[1,3,4]oxadiazol-2-yl)-benzofuran-3-carboxylic acid methylamide [Example 430]			EC50 [1, 6]: < 10 µM; IC50 [2, 7]: ≤ 500 nM
2-(4-Fluoro-phenyl)-6-(1H-imidazol-2-yl)-5-methoxy-benzofuran-3-carboxylic acid methylamide [Example 296]			EC50 [1, 4]: < 1 µM; IC50 [2, 8]: ≤ 500 nM
2-(4-Fluoro-phenyl)-6-(1H-imidazol-4-yl)-5-methoxy-benzofuran-3-carboxylic acid methylamide [Example 295]			EC50 [1, 4]: < 10 µM; IC50 [2, 8]: ≤ 500 nM
4-Chloro-6-[ethyl-(2-methoxy-acetyl)-amino]-2-(4-fluoro-phenyl)-5-methoxy-benzofuran-3-carboxylic acid methylamide [Example 432]			EC50 [1, 6]: < 10 µM; IC50 [2, 7]: 500 to 5000 nM
5-(3-Cyano-benzyloxy)-2-(4-fluoro-phenyl)-6-(methanesulfonyl-methoxymethyl-amino)-benzofuran-3-carboxylic acid methylamide [Example 447]			EC50 [1, 4]: < 1 µM; IC50 ([2]; HCV NS5B RdRp, BB7 (genotype 1b), reported as class symbols): ≤ 500 nM
6-(3-Amino-pyrrolidin-1-yl)-2-(4-fluoro-phenyl)-5-isopropoxy-2,3-dihydro-benzofuran-3-carboxylic acid methylamide [Example 15]	5000 to 30000		EC50 ([1]; Huh-7-Clone A, NS5A ELISA, 72-hour incubation, ranges of EC50, read-out: Replicon): < 30 µM
CNC(=O)c1c(-c2ccoc2)oc2ccc(OC)cc12 [Example 1, 2-Furan-3-yl-5-methoxy-benzofuran-3-carboxylic acid methylamide]	500 to 5000		EC50 ([1]; Hepatitis C virus, 72 h, read-out: Replicon (μM)): < 30 µM
CNC(=O)c1c(-c2ccc(F)c(F)c2)oc2ccc(OC)cc12 [Example 3, 2-(3,4-Difluoro-phenyl)-5-methoxy-benzofuran-3-carboxylic acid methylamide]	≤ 500	< 10	
CNC(=O)c1c(-c2ccc(CNC(C)=O)cc2)oc2ccc(OC(C)C)cc12 [Example 4, 2-[4-(Acetylamino-methyl)-phenyl]-5-isopropoxy-benzofuran-3-carboxylic acid methylamide]	500 to 5000	< 30	
CNC(=O)c1c(-c2ccc(O)cc2)oc2ccc(OC(C)C)cc12 [Example 5, 2-(4-Hydroxy-phenyl)-5-isopropoxy-benzofuran-3-carboxylic acid methylamide]	500 to 5000	< 10	
CNC(=O)c1c(-c2ccc(F)cc2)oc2cc(N3CCCC3)c(OC(C)C)cc12 [Example 6, 2-(4-Fluoro-phenyl)-5-isopropoxy-6-pyrrolidin-1-yl-benzofuran-3-carboxylic acid methylamide]	≤ 500	< 1	
CNC(=O)c1c(-c2ccc(F)cc2)oc2ccc(OC(F)F)cc12 [Example 7, 5-Difluoromethoxy-2-(4-fluoro-phenyl)-benzofuran-3-carboxylic acid methylamide]	500 to 5000	< 10	
CNC(=O)c1c(-c2ccc(F)cc2)oc2cc(NCCOC)c(OC(C)C)cc12 [Example 8, 2-(4-Fluoro-phenyl)-5-isopropoxy-6-(2-methoxy-ethylamino)-benzofuran-3-carboxylic acid methylamide]	≤ 500	< 1	
CNC(=O)c1c(-c2ccccc2)oc2ccc(C)cc12 [Example 9, 5-Methyl-2-phenyl-benzofuran-3-carboxylic acid methylamide]	500 to 5000	< 10	
CNC(=O)c1c(-c2ccc(F)cc2)oc2ccc(C)cc12 [Example 10, 5-Methyl-2-(4-fluoro-phenyl)benzofuran-3-carboxylic acid methylamide]	500 to 5000	< 10	
CNC(=O)c1c(-c2ccccc2)oc2ccc(OCC(F)(F)F)cc12 [Example 11, 2-Phenyl-5-(2,2,2-trifluoro-ethoxy)-benzofuran-3-carboxylic acid methylamide]	> 30000	< 30	
CNC(=O)c1c(-c2ccc(F)cc2)oc2ccc(OC)cc12 [Example 12, 2-(4-Fluoro-phenyl)-5-methoxy-benzofuran-3-carboxylic acid methylamide]	≤ 500	< 10	
CNC(=O)c1c(-c2ccc(F)cc2)oc2cc(Br)c(OC)cc12 [Example 13, 6-Bromo-2-(4-fluoro-phenyl)-5-methoxy-benzofuran-3-carboxylic acid methylamide]	≤ 500	< 1	
CNC(=O)c1c(-c2ccccc2)oc2cc(C)c(OC)cc12 [Example 14, 5-Methoxy-6-methyl-2-phenyl-benzofuran-3-carboxylic acid methylamide]	≤ 500	< 1	
CNC(=O)c1c(-c2ccc(F)cc2)oc2cc(N)c(OC(C)C)cc12 [Example 16, 6-Amino-2-(4-fluoro-phenyl)-5-isopropoxy-benzofuran-3-carboxylic acid methylamide]	≤ 500	< 10	
CNC(=O)c1c(-c2ccc(F)cc2)oc2cc(N)c(OC)cc12 [Example 17, 6-Amino-2-(4-fluoro-phenyl)-5-methoxy-benzofuran-3-carboxylic acid methylamide]	500 to 5000	< 10	
CNC(=O)c1c(-c2ccc(F)cc2)oc2cc(N(C)S(C)(=O)=O)c(OC(C)c3nccs3)cc12 (stereo not shown) [Example 408, 2-(4-Fluoro-phenyl)-6-(methanesulfonyl-methyl-amino)-5-(1-thiazol-2-yl-ethoxy)-benzofuran-3-carboxylic acid methylamide]			EC50 ([1]; Hepatitis C virus, HCV replicon assay, ranges of 50% effective concentration (EC50), read-out: Replicon): < 1 µM
